Measured values: US20210040073A1, “AZABICYCLO-SUBSTITUTED TRIAZOLE DERIVATIVE, PREPARATION METHOD THEREOF, AND APPLICATION OF SAME IN MEDICINE” (Jiangsu Hengrui Medicine Co., Ltd., priority 2016, published 2021)

Tests used:
human OTR = biological target: T1, human OTR (Homo sapiens, UniProt P30559); assay: Inhibition activity on human OTR (Fluo-4 calcium assay, HEK293/human OTR stably transfected cells, oxytocin 3 nM); type: cell-based; settings: calcium signal
T1 construct: expressed in transfected cells
T1 sequence (P30559 1-389): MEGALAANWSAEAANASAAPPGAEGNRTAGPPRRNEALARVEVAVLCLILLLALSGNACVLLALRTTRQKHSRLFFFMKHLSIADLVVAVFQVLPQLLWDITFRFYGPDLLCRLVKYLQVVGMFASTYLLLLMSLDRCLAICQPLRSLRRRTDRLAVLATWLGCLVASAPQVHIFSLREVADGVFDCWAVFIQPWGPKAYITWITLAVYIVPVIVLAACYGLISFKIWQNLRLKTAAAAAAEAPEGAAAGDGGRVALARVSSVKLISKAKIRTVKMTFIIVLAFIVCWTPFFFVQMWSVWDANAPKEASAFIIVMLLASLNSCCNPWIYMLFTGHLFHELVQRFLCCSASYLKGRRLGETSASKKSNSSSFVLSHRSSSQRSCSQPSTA
Experimental: The inhibition effect of the compounds of the present invention on the activity of human OTR protein expressed in HEK293/human OTR stably transfected cells was determined by the following experimental method:
The pcDNA3.1-hOTR plasmid was transferred into HEK293 cells with the Lipofectamine® 3000 transfection reagent; G418 was added on the next day to screen, and monoclonal cell lines were selected.
HEK293/human OTR stably transfected cells were inoculated in a 96-well plate with an inoculation density of 25,000 cells/well one day in advance. On the next day, a loading buffer containing Fluo-4 dye was formulated using the reagents in the Fluo-4 NW calcium assay kit, and the culture medium was then removed; 100 μl of the loading buffer containing Fluo-4 dye were added to each well, and the plate was incubated at 37° C. for 30 minutes. After that, the plate was moved to room temperature and equilibrated for 10 minutes. The compounds were formulated into concentration gradients of 10^6, 10^5, 10^4, 10^3, 10^2 and 10^1 nM. 1 μl of the compounds in each concentration was added to each well, and the plate was incubated at room temperature for 10 minutes. 50 μl of oxytocin polypeptide (3 nM) were automatically added by the machine, and the values were immediately detected at 494/516 nM by the flexstation 3 microplate reader. IC50 values of the compounds were calculated by Graphpad prism software using fluorescence signals corresponding to different concentrations.
The inhibition activity of the compounds of the present invention on human OTR was determined by the above test, and the obtained IC50 values are shown in Table 1.

[1] = Pharmacokinetics assay in rats after intragastrical administration; settings: 2 mg/kg; for AUC / CL/F / MRT / Vd/F: plasma
Experimental: Rats were used as test animals. […] The pharmacokinetic behavior of the compounds of the present invention was studied and evaluated in rats.
After an overnight fast, SD rats were administered intragastrically the test compounds at an administration dosage of 2.0 mg/kg and an administration volume of 10.0 mL/kg.
0.2 mL of blood was taken from the orbital sinus before administration and at 0.5, 1.0, 2.0, 4.0, 6.0, 8.0, 11.0 and 24.0 hours after administration. The samples were stored in heparinized tubes, and centrifuged for 10 minutes at 4° C. at 3,500 rpm to separate the blood plasma. The plasma samples were stored at −20° C. The rats were fed 2 hours after administration.
The content of the test compounds in the plasma of rats after intragastrical administration of the test compounds at different concentrations was determined: 25 μL of rat plasma at each time after administration was taken, added with 50 μL of the internal standard solution of camptothecin (100 ng/mL) and 200 μL of acetonitrile, vortex-mixed for 5 minutes, and centrifuged for 10 minutes (4000 rpm). 1.0 μL of the supernatant was taken from the plasma samples for LC/MS/MS analysis.

[2] = both, Sprague-Dawley, rat, in vivo, po

SMILES | IC50 (human OTR) [nM] | Half-life T½ ([1]; SD rats, intragastrical) [h] | Cmax [1, 2] [ng/mL] | AUC ([1]; both, Sprague-Dawley, rat, po) [ng·h/mL] | CL/F ([1]; both, Sprague-Dawley, rat, po) [mL/min/kg] | MRT ([1]; both, Sprague-Dawley, rat, po) [h] | Vd/F ([1]; both, Sprague-Dawley, rat, po) [L/kg] | Plasma concentration Cmax ([1]; SD rats, intragastrical) [ng/mL] | half-life [1, 2] [h]
COc1ccc(-n2c(N3C[C@@H]4C[C@]4(c4ccc(F)cc4Cl)C3)nnc2C(F)(F)F)cn1 [Example 12, (1S,5R)-1-(2-Chloro-4-fluorophenyl)-3-(4-(6-methoxypyridin-3-yl)-5-(trifluoromethyl)-4H-1,2,4-triazol-3-yl)-3-azabicyclo[3.1.0]hexane] | 30 |  |  |  |  |  |  |  | 
COc1ccc(-n2c(COCCF)nnc2N2C[C@@H]3C[C@]3(c3ccc(F)cc3Cl)C2)cn1 [Example 1, (1S,5R)-1-(2-Chloro-4-fluorophenyl)-3-(5-((2-fluoroethoxy)methyl)-4-(6-methoxypyridin-3-yl)-4H-1,2,4-triazol-3-yl)-3-azabicyclo[3.1.0]hexane] | 44 |  |  |  |  |  |  |  | 
COCc1nnc(N2C[C@@H]3C[C@]3(c3ccc(F)cc3Cl)C2)n1-c1ccc(OC)nc1 [Example 9, (1S,5R)-1-(2-Chloro-4-fluorophenyl)-3-(5-(methoxymethyl)-4-(6-methoxypyridin-3-yl)-4H-1,2,4-triazol-3-yl)-3-azabicyclo[3.1.0]hexane] | 14 | 3.98 ± 3.55 | 350 ± 142 | 2040 ± 1020 | 20.2 ± 10.3 | 6.23 ± 4.94 | 6 ± 4.44 |  | 
CCOCc1nnc(N2C[C@@H]3C[C@]3(c3ccc(F)cc3Cl)C2)n1-c1ccc(OC)nc1 [Example 6, (1S,5R)-1-(2-Chloro-4-fluorophenyl)-3-(5-(ethoxymethyl)-4-(6-methoxypyridin-3-yl)-4H-1,2,4-triazol-3-yl)-3-azabicyclo[3.1.0]hexane] | 4.3 |  |  | 1060 ± 982 | 68.9 ± 58.8 | 6.7 ± 0.73 | 18 ± 17.4 | 135 ± 80.0 | 3.47 ± 1.72
COCc1nnc(N2C[C@@H]3C[C@]3(c3cccc(F)c3Cl)C2)n1-c1ccc(OC)nc1 [Example 4, (1S,5R)-1-(2-Chloro-3-fluorophenyl)-3-(5-(methoxymethyl)-4-(6-methoxypyridin-3-yl)-4H-1,2,4-triazol-3-yl)-3-azabicyclo[3.1.0]hexane] | 29 |  |  |  |  |  |  |  | 
